# Reference: patent US20060069132A1, “Azolecarboxamide herbicides” (priority 2004, published 2006)
# What was measured:
# [1] = tested on: corn; assay: Test C pre-/postemergence herbicide test; type: in vivo, Zea mays; details: preemergence
# Method in brief: (§1)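 Pre/post spray; non-phytotoxic solvent + surfactant. Post-timing 1–4 leaves, 2–18 cm. Read-out: visual % control vs untreated, day 12–14, greenhouse.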
# [2] = tested on: lambsquarters; assay: Test C pre-/postemergence herbicide test; type: in vivo, Chenopodium album; details: preemergence
# Method in brief: as §1
# [3] = tested on: pigweed; assay: Test C pre-/postemergence herbicide test; type: in vivo, Amaranthus retroflexus; details: preemergence
# Method in brief: as §1
# [4] = tested on: velvetleaf; assay: Test C pre-/postemergence herbicide test; type: in vivo, Abutilon theophrasti; details: preemergence
# Method in brief: as §1
# [5] = tested on: morningglory; assay: Test A pre-/postemergence herbicide test; type: in vivo, Ipomoea spp.
# Method in brief: (§2)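 Greenhouse injury scoring (0–100, complete control = 100) at approximately ten days follows simultaneous pre- and postemergence application. Soil received a directed spray after seeding; seedlings of 2–10 cm at the one- to two-leaf stage were sprayed to runoff.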
# [6] = tested on: kochia; assay: Test C pre-/postemergence herbicide test; type: in vivo, Kochia scoparia; details: preemergence
# Method in brief: as §1
# [7] = tested on: Surinam grass; assay: Test C pre-/postemergence herbicide test; type: in vivo, Urochloa decumbens; details: preemergence
# Method in brief: as §1
# [8] = tested on: giant foxtail; assay: Test A pre-/postemergence herbicide test; type: in vivo, Setaria faberi
# Method in brief: as §2
# [9] = tested on: velvetleaf; assay: Test A pre-/postemergence herbicide test; type: in vivo, Abutilon theophrasti
# Method in brief: as §2
# [10] = tested on: ducksalad; assay: Test C flooded paddy test; type: in vivo, Heteranthera limosa
# [11] = tested on: rice; assay: Test C flooded paddy test; type: in vivo, Oryza sativa
# Method in brief: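 Injury scored visually against controls on a 0 (no effect) to 100 (complete control) scale, 12 to 14 days after treatment in greenhouse. Flooded paddy plants treated at 2-leaf stage; postemergence plants at 1- to 4-leaf stage, 2 to 18 cm tall.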
# [12] = 125 g ai/ha, scale 0 (no effect) to 100 (complete control), visual, 12 to 14 days
# [13] = 500 g ai/ha, scale 0 to 100 (0 no effect, 100 complete control), visual, 12 to 14 days
# [14] = Postemergence, 500 g ai/ha, 0 to 100 scale, 0 no effect, 100 complete control
# [15] = Postemergence, 2000 g ai/ha, 0 to 100 scale, 0 no effect, 100 complete control
# [16] = Preemergence, 2000 g ai/ha, visual rating, 0 to 100 scale (0 no effect, 100 complete control)
# [17] = preemergence, 500 g ai/ha, visual injury, 0 to 100 scale (0 no effect, 100 complete control)
# [18] = 125 g ai/ha, scale 0 to 100 (0 no effect, 100 complete control)
# [19] = 250 g ai/ha, scale of 0 to 100, 0 is no effect, 100 is complete control
# [20] = 500 g ai/ha, visual rating after 12 to 14 days, scale 0 to 100 (0 no effect, 100 complete control)
compound,measurement,setting,value
CCNC(=O)c1ccc(F)c(NC(=O)C2CC(C(C)(C)C)=NN2CC)c1 (racemic) [Compound 269],"Plant response rating, Corn",[1]; [12],20
same,"Plant response rating, Corn","[1]; 250 g ai/ha, scale 0-100",40
same,"Plant response rating, Corn",[1]; [13],55
same,"Plant response rating, Lambsquarters","[2]; 62 g ai/ha, scale 0 to 100",95
same,"Plant response rating, Lambsquarters",[2]; [12],100
same,"Plant response rating, Lambsquarters","[2]; 250 g ai/ha, scale 0-100",100
same,"Plant response rating, Lambsquarters",[2]; [13],100
same,"Plant response rating, Pigweed","[3]; 62 g ai/ha, scale 0 to 100",100
same,"Plant response rating, Pigweed",[3]; [12],100
same,"Plant response rating, Pigweed","[3]; 250 g ai/ha, scale 0-100",100
same,"Plant response rating, Pigweed",[3]; [13],100
same,"Plant response rating, Velvetleaf","[4]; 62 g ai/ha, scale 0 to 100",5
same,"Plant response rating, Velvetleaf","[4]; 250 g ai/ha, scale 0-100",75
same,"Plant response rating, Velvetleaf",[4]; [13],80
same,Morningglory plant response rating,[5]; [14],20
same,"Plant response rating, Morningglory",[5]; [15],35
same,Morningglory plant response rating,[5]; [16],30
same,Morningglory plant response rating,[5]; [17],20
same,"Plant response rating, Kochia","[6]; 62 g ai/ha, scale 0 to 100",70
same,"Plant response rating, Kochia",[6]; [12],100
same,"Plant response rating, Kochia","[6]; 250 g ai/ha, scale 0-100",100
same,"Plant response rating, Kochia",[6]; [13],100
same,"Plant response rating, Surinam Grass","[7]; 62 g ai/ha, scale 0 to 100",5
same,"Plant response rating, Surinam Grass","[7]; 250 g ai/ha, scale 0-100",85
same,"Plant response rating, Surinam Grass",[7]; [13],95
same,"Foxtail, Giant plant response rating",[8]; [14],35
same,"Plant response rating, Foxtail, Giant",[8]; [15],65
same,"Foxtail, Giant plant response rating",[8]; [16],100
same,"Foxtail, Giant plant response rating",[8]; [17],100
same,Velvetleaf plant response rating,[9]; [14],25
same,"Plant response rating, Velvetleaf",[9]; [15],30
same,Velvetleaf plant response rating,[9]; [16],100
same,Velvetleaf plant response rating,[9]; [17],40
same,Ducksalad plant response rating,"[10]; 62 g ai/ha, scale 0 to 100",55
same,Ducksalad plant response rating,[10]; [18],80
same,Ducksalad plant response rating,[10]; [19],80
same,"Plant response rating, Ducksalad",[10]; [20],85
same,Rice plant response rating,"[11]; 62 g ai/ha, scale 0 to 100",45
same,Rice plant response rating,[11]; [18],50
same,Rice plant response rating,[11]; [19],75
same,"Plant response rating, Rice",[11]; [20],80
